Measured values taken from ChEMBL document CHEMBL5214890 (Eur J Med Chem, 2021).
Where a SMILES comes first, the peptide text is derived from it. [ ]: non-standard residue; d: D form. ξ: configuration not given here. Thr(3ξ) = CC(O)[C@H](N)C(=O)O; Aib = CC(C)(N)C(=O)O

Legend:
Assay type in all cases: functional, cell-based
[1] = biological target: T1, Glucagon-like peptide 1 receptor (Homo sapiens, UniProt P43220); experiment: Agonist activity at human GLP-1R expressed in HEK293 cells incubated for 30 mins and assessed as increase in cAMP accumulation measured by HTRF assay
T1 sequence (P43220 whole entry): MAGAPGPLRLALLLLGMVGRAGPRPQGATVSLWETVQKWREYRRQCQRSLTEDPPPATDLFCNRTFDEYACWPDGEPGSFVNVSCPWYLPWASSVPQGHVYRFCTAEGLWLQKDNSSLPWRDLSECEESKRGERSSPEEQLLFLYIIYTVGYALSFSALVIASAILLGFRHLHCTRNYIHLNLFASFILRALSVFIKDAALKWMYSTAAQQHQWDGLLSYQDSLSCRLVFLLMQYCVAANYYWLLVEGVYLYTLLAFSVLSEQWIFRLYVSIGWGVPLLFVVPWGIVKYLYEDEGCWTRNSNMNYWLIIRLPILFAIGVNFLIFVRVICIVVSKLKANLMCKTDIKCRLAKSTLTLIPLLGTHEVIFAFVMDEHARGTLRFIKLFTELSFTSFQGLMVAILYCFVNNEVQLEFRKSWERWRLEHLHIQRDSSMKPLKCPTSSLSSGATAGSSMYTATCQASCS

[2] = biological target: T1, Glucagon-like peptide 1 receptor; experiment: Agonist activity at human GLP-1R expressed in HEK293 cells incubated for 30 mins and assessed as increase in cAMP accumulation measured by HTRF assay relative to control; parameters: concentration or dose not given beside the values
Glucagon receptor = Glucagon receptor (Homo sapiens, UniProt P47871); experiment: Agonist activity at human GCGR expressed in HEK293 cells incubated for 30 mins and assessed as increase in cAMP accumulation measured by HTRF assay
Glucagon receptor, sequence (P47871 whole entry): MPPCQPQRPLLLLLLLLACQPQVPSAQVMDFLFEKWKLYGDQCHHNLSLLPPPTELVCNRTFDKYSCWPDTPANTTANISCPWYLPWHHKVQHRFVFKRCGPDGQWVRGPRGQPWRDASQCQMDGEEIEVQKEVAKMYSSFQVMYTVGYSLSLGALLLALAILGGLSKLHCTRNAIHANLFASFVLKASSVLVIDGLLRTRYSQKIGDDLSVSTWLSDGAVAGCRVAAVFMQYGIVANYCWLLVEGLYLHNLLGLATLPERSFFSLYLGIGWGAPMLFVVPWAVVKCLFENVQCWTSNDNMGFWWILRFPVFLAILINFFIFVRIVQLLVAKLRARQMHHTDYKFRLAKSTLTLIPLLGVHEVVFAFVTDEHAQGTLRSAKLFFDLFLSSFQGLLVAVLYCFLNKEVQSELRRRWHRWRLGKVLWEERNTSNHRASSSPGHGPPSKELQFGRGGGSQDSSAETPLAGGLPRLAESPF

Compound | EC50 ([1]; hek293) [nM] | Activity ([2]; filed as agonist) [%] | EC50 [1] [nM] | Activity [2] [%] | EC50 (Glucagon receptor) [nM]
CCCCCCCCCCCCCCCC(=O)N[C@H](CCC(=O)NCCCC[C@H](NC(=O)[C@H](CO)NC(=O)[C@@H](NC(=O)[C@H](CC(=O)O)NC(=O)[C@H](CC(N)=O)NC(=O)[C@@H](NC(=O)[C@H](Cc1ccc(O)cc1)NC(=O)[C@@H](NC(=O)CNC(=O)[C@H](CCC(N)=O)NC(=O)[C@@H](CO)NC(=O)[C@@H](N)Cc1c[nH]cn1)[C@@H](C)O)[C@@H](C)O)C(C)C)C(=O)N[C@@H](Cc1ccc(O)cc1)C(=O)N[C@@H](CC(C)C)C(=O)N[C@@H](CC(=O)O)C(=O)N[C@@H](CO)C(=O)N[C@@H](CCCNC(=N)N)C(=O)N[C@@H](CCCNC(=N)N)C(=O)N[C@@H](C)C(=O)N[C@@H](CCC(N)=O)C(=O)N[C@@H](CC(=O)O)C(=O)N[C@@H](Cc1ccccc1)C(=O)N[C@H](C(=O)N[C@@H](CCC(=O)O)C(=O)N[C@@H](Cc1c[nH]c2ccccc12)C(=O)N[C@@H](CC(C)C)C(=O)N[C@@H](CCCCN)C(=O)N[C@@H](CC(N)=O)C(=O)NCC(=O)NCC(=O)N1CCC[C@H]1C(=O)N[C@@H](CO)C(=O)N[C@@H](CO)C(=O)NCC(=O)N[C@@H](C)C(=O)N1CCC[C@H]1C(=O)N1CCC[C@H]1C(=O)N1CCC[C@H]1C(=O)N[C@@H](CO)C(N)=O)[C@@H](C)CC)C(=O)O | 0.051 | 80.4 |  |  | 
H-HSQGTYTNDVTEYLDSRRAQDFIEWLKNGGPSSGAPPPS-NH2 |  |  | 0.22 | 18.6 | 39
H-HSQGTYTNDVSKYLDSRRAQDFIEWLIKGKRNRNNIA-NH2 |  | 52.6 | 0.078 |  | 0.28
H-HSQGTYTNDVTEYLDSRRAQEFIEWLIKGK-NH2 |  |  | 0.16 | 25.6 | 2.7
H-HSQGTYTNDVTEYLDSRRAQDFIEWLIKGK-NH2 |  |  | 0.12 | 34.2 | 2.6
CC[C@H](C)[C@H](NC(=O)[C@H](Cc1ccccc1)NC(=O)[C@H](CC(=O)O)NC(=O)[C@H](CCC(N)=O)NC(=O)[C@H](C)NC(=O)[C@H](CCCNC(=N)N)NC(=O)[C@H](CCCNC(=N)N)NC(=O)[C@H](CO)NC(=O)[C@H](CC(=O)O)NC(=O)[C@H](CC(C)C)NC(=O)[C@H](Cc1ccc(O)cc1)NC(=O)[C@H](CCC(N)=O)NC(=O)[C@@H](NC(=O)[C@@H](NC(=O)[C@H](CC(=O)O)NC(=O)[C@H](CC(N)=O)NC(=O)[C@@H](NC(=O)[C@H](Cc1ccc(O)cc1)NC(=O)[C@@H](NC(=O)CNC(=O)[C@H](CCC(N)=O)NC(=O)[C@H](CO)NC(=O)[C@@H](N)Cc1c[nH]cn1)[C@@H](C)O)[C@@H](C)O)C(C)C)[C@@H](C)O)C(=O)N[C@@H](CCC(=O)O)C(=O)N[C@@H](Cc1c[nH]c2ccccc12)C(=O)N[C@@H](CC(C)C)C(=O)N[C@@H](CCSC)C(=O)N[C@@H](CC(N)=O)C(=O)N[C@H](C(N)=O)C(C)O (some centres not stated) (H-HSQGTYTNDVTQYLDSRRAQDFIEWLMN[Thr(3ξ)]-NH2) |  |  | 0.73 | 5.6 | 0.43
CC[C@H](C)[C@H](NC(=O)[C@H](Cc1ccccc1)NC(=O)[C@H](CC(=O)O)NC(=O)[C@H](CCC(N)=O)NC(=O)[C@H](C)NC(=O)[C@H](CCCNC(=N)N)NC(=O)[C@H](CCCNC(=N)N)NC(=O)[C@H](CO)NC(=O)[C@H](CC(=O)O)NC(=O)[C@H](CC(C)C)NC(=O)[C@H](Cc1ccc(O)cc1)NC(=O)[C@H](CCCCN)NC(=O)[C@H](CO)NC(=O)[C@@H](NC(=O)[C@H](CC(=O)O)NC(=O)[C@H](CC(N)=O)NC(=O)[C@@H](NC(=O)[C@H](Cc1ccc(O)cc1)NC(=O)[C@@H](NC(=O)CNC(=O)[C@H](CCC(N)=O)NC(=O)[C@H](CO)NC(=O)[C@@H](N)Cc1c[nH]cn1)[C@@H](C)O)[C@@H](C)O)C(C)C)C(=O)N[C@@H](CCC(=O)O)C(=O)N[C@@H](Cc1c[nH]c2ccccc12)C(=O)N[C@@H](CC(C)C)C(=O)N[C@@H](CCSC)C(=O)N[C@@H](CC(N)=O)C(=O)N[C@H](C(N)=O)C(C)O (some centres not stated) (H-HSQGTYTNDVSKYLDSRRAQDFIEWLMN[Thr(3ξ)]-NH2) |  |  | 0.68 | 6 | 0.41
H-HSQGTYTNDVSKYLDSRRAQDFIEWLIKG-NH2 |  |  | 0.56 | 7.3 | 1.9
H-HSQGTYTNDVSKYLDSRRAQDFIEWLIKGK-NH2 |  |  | 0.14 | 29.3 | 1.3
CCCCCCCCCCCCCCCC(=O)N[C@@H](CCC(=O)NCCCC[C@H](NC(=O)[C@H](CO)NC(=O)[C@@H]1CCCN1C(=O)[C@@H]1CCCN1C(=O)[C@@H]1CCCN1C(=O)[C@H](C)NC(=O)CNC(=O)[C@H](CO)NC(=O)[C@H](CO)NC(=O)[C@@H]1CCCN1C(=O)CNC(=O)CNC(=O)[C@H](CC(N)=O)NC(=O)[C@H](CCCCN)NC(=O)[C@H](CC(C)C)NC(=O)[C@H](Cc1c[nH]c2ccccc12)NC(=O)[C@H](CCC(=O)O)NC(=O)[C@@H](NC(=O)[C@H](Cc1ccccc1)NC(=O)[C@H](CC(=O)O)NC(=O)[C@H](CCC(N)=O)NC(=O)[C@H](C)NC(=O)[C@H](CCCNC(=N)N)NC(=O)[C@H](CCCNC(=N)N)NC(=O)[C@H](CO)NC(=O)[C@H](CC(=O)O)NC(=O)[C@H](CC(C)C)NC(=O)[C@H](Cc1ccc(O)cc1)NC(=O)[C@H](CCCCN)NC(=O)[C@H](CO)NC(=O)[C@@H](NC(=O)[C@H](CC(=O)O)NC(=O)[C@H](CC(N)=O)NC(=O)[C@@H](NC(=O)[C@H](Cc1ccc(O)cc1)NC(=O)[C@@H](NC(=O)CNC(=O)[C@H](CCC(N)=O)NC(=O)[C@@H](CO)NC(=O)[C@@H](N)Cc1c[nH]cn1)[C@@H](C)O)[C@@H](C)O)C(C)C)[C@@H](C)CC)C(N)=O)C(=O)O |  | 47.7 | 0.086 |  | 0.28
H-HSQGTYTNDVSKYLDSRRAQDFIEWLKNGGPSSGAPPPS-NH2 |  | 77.4 | 0.053 |  | 0.15
CC[C@H](C)[C@H](NC(=O)[C@H](CC(C)C)NC(=O)[C@H](Cc1c[nH]c2ccccc12)NC(=O)[C@H](CCC(=O)O)NC(=O)[C@@H](NC(=O)[C@H](Cc1ccccc1)NC(=O)[C@H](CCC(=O)O)NC(=O)[C@H](CCCCN)NC(=O)[C@H](C)NC(=O)[C@H](C)NC(=O)[C@H](CCC(=O)O)NC(=O)[C@H](CCC(=O)O)NC(=O)[C@H](CCC(=O)O)NC(=O)[C@H](CC(C)C)NC(=O)[C@H](Cc1ccc(O)cc1)NC(=O)[C@H](CCC(=O)O)NC(=O)[C@@H](NC(=O)[C@@H](NC(=O)[C@H](CC(=O)O)NC(=O)[C@H](CC(N)=O)NC(=O)[C@@H](NC(=O)[C@H](Cc1ccc(O)cc1)NC(=O)[C@@H](NC(=O)CNC(=O)[C@H](CCC(=O)O)NC(=O)C(C)(C)NC(=O)[C@@H](N)Cc1c[nH]cn1)[C@@H](C)O)[C@@H](C)O)C(C)C)[C@@H](C)O)[C@@H](C)CC)C(=O)N[C@@H](CCCCN)C(=O)NCC(=O)N[C@@H](CCCCN)C(N)=O (H-H[Aib]EGTYTNDVTEYLEEEAAKEFIEWLIKGK-NH2) |  | 100 | 0.041 |  | > 1000
H-HSQGTYTNDVSKYLDSRRAQQFIEWLMNTKRNRNNIA-NH2 |  |  | 0.57 | 7.2 | 0.42
H-HSQGTYTNDVTQYLDSRRAQQFIEWLMNTKRNRNNIA-NH2 |  |  | 0.62 | 6.6 | 0.93
H-HSQGTYTNDVTEYLDSRRAQDFIEWLIKGKPSSGAPPPS-NH2 |  |  | 0.45 | 9.1 | 1.3
H-HSQGTYTNDVSKYLDSRRAQDFIEWLIKGKPSSGAPPPS-NH2 |  |  | 0.24 | 17.1 | 0.85
